{
  "source": "patent US12077636B2",
  "about": "(NISSAN CHEMICAL CORPORATION, priority 2013, dated 2024)",
  "test": "Dissolution rate into the solvent",
  "assay_type": "physicochemical",
  "conditions": "compared with α-type:β-type in a range of 98:2 to 85:15",
  "data": [
    {"smiles": "O=c1n(CC2CO2)c(=O)n(CC2CO2)c(=O)n1CC1CO1", "note": "(stereo not shown) [Tris-(2,3-epoxypropyl)-isocyanurate]", "values": [
      {"measurement": "dissolution rate for dissolution into the solvent", "result": "slower"}
    ]}
  ]
}
